Results published in publication PMC7804203, “Targeting adaptor protein SLP76 of RAGE as a therapeutic approach for lethal sepsis” (Nature Communications, 2021).
Several values for one entry are separate records, joined by “and”; a condition that tells them apart may be missing. Identical values can stand only once.

Legend:
Assay type in all cases: cell-based
[1] = tested on: IKKα/β phosphorylation, RAW264.7 cells; assay: Western blot, AGE-induced IKKα/β activation after TAT-fused peptides; conditions: AGEs+, relative to Ctrl without AGEs = 1
Procedure: (§1) Cultured cells in 6-well plates were harvested, washed twice with PBS, and lysed for 30 min on ice in 150 μl of cell lysis buffer (#9803) from CST (Boston, MA, USA) containing 1 mM PMSF and 2 μg/ml leupeptin. Proteins were quantified with the BCA method. Protein samples were resolved by 10% SDS-PAGE, transferred to a nitrocellulose (NC) membrane (#GE10600002), and blocked for 1 h with 5% nonfat milk in Tris-buffered saline containing 0.1% Tween 20 (TBST) at room temperature. After incubation with a specific primary antibody overnight at 4 °C, the membrane was washed with TBST three times. Then, the membrane was incubated with a secondary antibody for 1 h at room temperature. Enhanced chemiluminescence (ECL) (#32109, Thermo Fisher Scientific, Waltham, MA, USA) was used to visualize the protein bands, and images were acquired in a ChemiDoc™ Imaging System (Bio-Rad, Hercules, CA, USA). Each experiment was repeated at least three times.

[2] = tested on: ERK1/2 phosphorylation, HEK293 cells; assay: Western blot, ERK1/2 phosphorylation in transfected HEK293 cells treated with AGEs; conditions: Fig. 4c, AGEs 100 μg/ml, 15 min, single runs Exp1-Exp3
Procedure: (§2) HEK293 cells (3 × 10^5) were cultured to a confluence of 80–90% in a 60 mm dish. Then, cells were transfected with 2 μg of total DNA by using 6 μl GeneJammer reagent (#204130, Agilent, Santa Clara, CA, USA) mixed with Opti-MEM (200 μl final volume) and were then incubated for 5 min at room temperature. RAW264.7 cells (1 × 10^5) were transfected with control siRNA, siRNA targeting AGER or siRNA targeting SLP76 using HiPerFect reagent (#301705, Qiagen, Hilden, Germany). SiRNA diluted in HiPerFect transfection reagent was premixed with Opti-MEM medium at room temperature for 5 min and incubated with cells in a 24-well plate for 48 h.
as §1

[3] = tested on: interaction between RAGE and SLP76 in HEK293 cells; assay: Co-IP of Flag-SLP76 with HA-RAGE (HA-tag antibody) in HEK293 cells treated with AGEs; conditions: Fig. 1c–e
Procedure: as §2
After transfection for 24 h, HEK293 cells were treated with AGEs at the indicated times and doses. Then, cells were collected and lysed with lysis buffer, and protein was quantitated with a bicinchoninic acid (BCA) kit (#23227, Thermo Fisher Scientific, Waltham, MA, USA). Total input protein (500 µg) was incubated with anti-FLAG M2 beads or anti-HA affinity gel overnight at 4 °C. After brief centrifugation, samples were washed five times with lysis buffer containing 0.1% Tween 20. Samples were then resolved by SDS-PAGE and subjected to western blotting with a specific antibody against the HA or Flag tag.

[4] = tested on: p38 MAPK phosphorylation, RAW264.7 cells; assay: Western blot, AGE-induced p38 MAPK activation after TAT-fused peptides; conditions: AGEs+, relative to Ctrl without AGEs = 1
Procedure: as §1

[5] = tested on: ERK1/2 phosphorylation, RAW264.7 cells; assay: Western blot, ERK1/2 phosphorylation in RAW264.7 cells treated with AGEs; conditions: 15 min (P < 0.05)
Procedure: as §1

[6] = tested on: ERK1/2 phosphorylation, RAW264.7 cells; assay: Western blot, AGE-induced ERK1/2 activation after TAT-fused peptides; conditions: AGEs+, relative to Ctrl without AGEs = 1
Procedure: as §1

[7] = tested on: JNKs phosphorylation, RAW264.7 cells; assay: Western blot, JNK phosphorylation in RAW264.7 cells treated with AGEs; conditions: AGEs 100 μg/ml; for JNK phosphorylation: Supplementary Fig. 4, single runs Exp1-Exp3
Procedure: as §1

[8] = tested on: IKKα/β phosphorylation, HEK293 cells; assay: Western blot, IKKα/β phosphorylation in transfected HEK293 cells treated with AGEs; conditions: Fig. 4d, AGEs 100 μg/ml, 15 min, single runs Exp1-Exp3
Procedure: as §2, §1

[9] = tested on: p38 MAPK phosphorylation, RAW264.7 cells; assay: Western blot, p38 MAPK phosphorylation in RAW264.7 cells treated with AGEs; conditions: 15 min (P < 0.05)
Procedure: as §1

[10] = tested on: p38 MAPK phosphorylation, HEK293 cells; assay: Western blot, p38 MAPK phosphorylation in transfected HEK293 cells treated with AGEs; conditions: Fig. 4b, AGEs 100 μg/ml, 15 min, single runs Exp1-Exp3
Procedure: as §2, §1

“AGEs: AGEs-BSA (#2221-10) purchased from Biovision; advanced glycation end products, RAGE ligand” was tested, and the “Relative IKKα/β phosphorylation, Supplementary figure 11e” value (“Relative IKKα/β phosphorylation” for short) ([1]; Exp1) was 3.559, the “Relative IKKα/β phosphorylation” value ([1]; Exp2) was 4.547 and the “Relative IKKα/β phosphorylation” value ([1]; Exp3) was 6.152. For the same substance, the “phosphorylated ERK1/2” value ([2]; RAGE overexpressed) was 4.032 and 4.674 and 4.165, the “phosphorylated ERK1/2” value ([2]; RAGE+SLP76 overexpressed) was 5.962 and 6.497 and 6.322 and the “phosphorylated ERK1/2” value ([2]; SLP76 overexpressed) was 3.146 and 2.87 and 3.315. For the same substance, the “phosphorylated ERK1/2” value ([2]; control vector) was 3.0116 and 3.25 and 2.795, the “RAGE/SLP76 binding after exposure to AGEs” value [3] was “dose- and time-dependent” and the “Relative p38 MAPK phosphorylation, Supplementary figure 11c” value (“Relative p38 MAPK phosphorylation” below) ([4]; Exp1) was 2.6013. The “Relative p38 MAPK phosphorylation” value ([4]; Exp2) was 2.501, the “Relative p38 MAPK phosphorylation” value ([4]; Exp3) was 3.172 and the “Phosphorylation of ERK1/2” value [5] was “increased significantly”. The “Relative ERK1/2 phosphorylation, Supplementary figure 11d” value (“Relative ERK1/2 phosphorylation” for short) ([6]; Exp1) was 3.946, the “Relative ERK1/2 phosphorylation” value ([6]; Exp2) was 5.325 and the “Relative ERK1/2 phosphorylation” value ([6]; Exp3) was 6.025. The “Phosphorylation of JNKs” value ([7]; 0-240 min, n=3) was “no significant difference between groups”, the JNK phosphorylation ([7]; 5 min) was 0.9831 and 1.298 and 1.325 and the JNK phosphorylation ([7]; 15 min) was 1.062 and 0.8245 and 0.7215. For the same substance, the JNK phosphorylation ([7]; 30 min) was 1.133 and 1.03 and 0.8721, the JNK phosphorylation ([7]; 60 min) was 1.061 and 0.95 and 0.8845 and the JNK phosphorylation ([7]; 90 min) was 1.254 and 1.05 and 0.7684. The JNK phosphorylation ([7]; 120 min) was 1.217 and 0.98 and 0.8649, the JNK phosphorylation ([7]; 240 min) was 1.277 and 0.91 and 0.7954 and the “phosphorylated IKKα/β” value ([8]; RAGE overexpressed) was 12.7634 and 9.791 and 10.05. The “phosphorylated IKKα/β” value ([8]; RAGE+SLP76 overexpressed) was 21.1403 and 18.74 and 17.6458, the “phosphorylated IKKα/β” value ([8]; SLP76 overexpressed) was 5.321 and 6.4 and 5.551 and the “phosphorylated IKKα/β” value ([8]; control vector) was 8.805 and 7.3 and 6.5457. The “Phosphorylation of p38 MAPK” value [9] was “increased significantly”, the “phosphorylated p38 MAPK” value ([10]; RAGE overexpressed) was 1.6247 and 1.965 and 1.83 and the “phosphorylated p38 MAPK” value ([10]; RAGE+SLP76 overexpressed) was 2.026 and 2.548 and 2.612. The “phosphorylated p38 MAPK” value ([10]; SLP76 overexpressed) was 1.3753 and 1.591 and 1.725 and the “phosphorylated p38 MAPK” value ([10]; control vector) was 1.2576 and 1.45 and 1.104.
